In the test the target is T1, ABCG2 (ATP-binding cassette super-family G member 2, BCRP) (Homo sapiens, UniProt Q9UNQ0).
T1 construct: ABCG2 in insect cell membrane vesicles
T1 sequence (Q9UNQ0 1-655): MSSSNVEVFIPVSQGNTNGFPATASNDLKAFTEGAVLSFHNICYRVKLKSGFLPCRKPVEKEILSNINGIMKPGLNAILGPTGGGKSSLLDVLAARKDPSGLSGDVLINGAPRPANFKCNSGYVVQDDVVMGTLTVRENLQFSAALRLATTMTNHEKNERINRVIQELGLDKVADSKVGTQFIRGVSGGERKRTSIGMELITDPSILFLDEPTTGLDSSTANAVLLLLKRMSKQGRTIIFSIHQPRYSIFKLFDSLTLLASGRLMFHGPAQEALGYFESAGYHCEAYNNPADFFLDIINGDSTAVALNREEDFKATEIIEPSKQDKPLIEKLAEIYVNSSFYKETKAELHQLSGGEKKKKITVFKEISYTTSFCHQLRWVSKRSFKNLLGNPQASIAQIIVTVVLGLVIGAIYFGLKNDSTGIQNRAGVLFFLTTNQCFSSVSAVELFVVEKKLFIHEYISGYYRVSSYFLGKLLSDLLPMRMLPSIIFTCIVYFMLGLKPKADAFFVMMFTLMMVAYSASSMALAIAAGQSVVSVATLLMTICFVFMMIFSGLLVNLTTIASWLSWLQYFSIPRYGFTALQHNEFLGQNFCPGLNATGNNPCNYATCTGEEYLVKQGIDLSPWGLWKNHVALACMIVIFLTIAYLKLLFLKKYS
The experiment in a line: biochemical.

The term EC50 denotes the concentration at which the effect is half-maximal. A higher EC50 goes with weaker potency.

The compound `O=C1NC(=O)[C@@H](c2cn3c4c(cccc24)CCC3)[C@@H]1c1c[nH]c2ccccc12` [Tivantinib] returned an EC50 of 6.76 µM.

Values taken from article PMC7017082, “Tivantinib, A c-Met Inhibitor in Clinical Trials, Is Susceptible to ABCG2-Mediated Drug Resistance” (Cancers, 2020).
